In experiment [1] the target is T1, MAPK1(ERK2) enzyme (Homo sapiens, UniProt P28482).
T1 construct: purchased Invitrogen PV3313
Briefly: Z-Lyte Kinase Assay of ERK2. Type of experiment: biochemical. The following applies: read-out: Example 18 IC50. The protocol: Example 18: Z-Lyte Kinase Assay of ERK2
1. Materials and Reagents:
2. Reaction Steps: Plate Map
3. Solution Preparation • 1) 1.33× Kinase Buffer: Dilute 5× Kinase Buffer to 1.33× with ddH2O • 2) 4× Test Compounds: Serially dilute the test compounds to 4 folds of the concentrations desired, keeping the DMSO concentration at 8%. The final concentrations are 1, 0.33, 0.11, 0.037, 0.012, 0.004, 0.0014, 0.00046 μM, and the final concentration of DMSO is 2%. • 3) Kinase/Peptide Mixture (P/K solution): Prepare Kinase/Peptide Mixture by diluting the kinase to 0.6 μg/ml and the Z-LYTE™ Ser/Thr3 peptide to 4 μM in 1.33× Kinase Buffer. Mix gently by pipetting. • 4) Phospho-peptide Solution (PP solution): Add 0.4 μl of Z-LYTE™ Ser/Thr3 Phospho-peptide to 99.6 μl of 1.33× Kinase Buffer. • 5) ATP Solution: Prepare ATP Solution by diluting the 10 mM of ATP in 1.33× Kinase Buffer to 100 μM. • 6) Development Solution: Dilute Development Reagent A with Development Buffer as 1:1024. 4. Reaction • 1) Kinase reaction (10 μl of Volume) • a. In a 384-well plate, add 2.5 μl of 4× test Cpds to each well except C1, C2, C3 wells Add 2.5 μl of 8% DMSO to C1, C2, C3 wells • b. Put the plate on ice • c. Add 5 μl of P/K mixture to each test Cpd wells and C1, C2 wells • d. Add 5 μl of PP Solution to C3 well • e. Add 2.5 μl of 1.33× kinase buffer to C1 and C3 wells • f. Add 2.5 μl of 4×ATP Solution to each test Cpd wells and C2 well, respectively. Shake the plate for 30 Sec and centrifuge (1500 rpm, 1 min) • g. Seal the plate to protect from the light and incubate the plate for 1 hour at RT (25-30° C.) • 2) Development reaction • a. Add 5 μl of the Development solution to all wells • b. Shake the plate for 30 sec and centrifuge (1500 rpm, 1 min) • c. Seal the plate to protect from the light and incubate the plate for 1 hour at RT (25-30° C.) • 3) Stop and read • a. Add 5 μl of the Stop reagent to all wells • b. Shake the plate for 30 sec and centrifuge (1500 rpm, 1 min) • c. Measure the value of coumarin (Ex400 nm, Em445 nm) and fluorescein (Ex400 nm, Em520 nm), respectively. 5. Data Analysis Emission Ratio(ER)=Coumarin Emission (445 nm)/Fluorescein Emission (520 nm) % Phosphorylation=1−[ER×C3520nm−C3445nm]/[(C1445nm−C3445nm)+ER×(C3520nm−C1520nm)] Inhibition rate (IR)=1−% Photest Cpd% PhoC2 6. IC50 Value: determine IC50 with add-in software for Microsoft Excel, XLfit™ (version 2.0) from ID Business Solutions (Guildford, UK)

For experiment [2], the system named is p-RSK (Thr359) in colo205 cells. Briefly: p-RSK (Thr359) Acumen Assay in Colo205. Type of experiment: cell-based. The following applies: Homo sapiens, COLO 205, 1 hour compound incubation, read-out: Example 19 IC50. Here is the method: Example 19: p-RSK (Thr359) Acumen Assay in Colo205
• Phospho-p90RSK (Thr359) (D1E9) Rabbit mAb: cell signal, #8753 • Alexa Fluor® 488 donkey anti-rabbit IgG: invitrogen, #A-21206 • Propidium Iodide: Sigma, #p4170 • 4% Paraformaldehyde: SCRC, #DF021 • 10% Triton X-100: PIERCE, #28314 • 96-well plate (black with clear bottom): BD, #354640 • Acumen® eX3 (A Multilaser Microplate Cytometer For Enhanced High Content Screening): TTP LabTech 3. Acumen Assay Protocol • Seed 4000 cells in 100 μl 10% FBS/well into 96-well plate, incubate at 37° C., 5% CO2, overnight. • Dilute the compound to 3, 1, 0.33, 0.11, 0.037, 0.012, 0.004, 0.001 μM, keeping the DMSO concentration at 5%. Add 10 μl of diluted compound per well and incubate at 37° C., 5% CO2 for 1 hour. • Add 100 μl of 4% pre-warmed Paraformaldehyde (2% final), and incubate for 45 min at room temperature. • Remove paraformaldehyde solutions. Add 100 μl of ice-cold 0.1% Triton to fixed cells at room temperature for 30 min. • Wash twice with 150 μl PBS and incubate with 100 μl blocking buffer (1% BSA, in PBS) for 2˜3 hours at room temperature, seal the plate. • Wash once with PBS and incubate with 35 μl p-RSK (Thr359) (1:1000 dilution) overnight at 4° C. Seal the plate. • Wash twice with PBS and incubate for 1.5 hours at room temperature with 35 μl of Alexa Fluor® 488 donkey anti-rabbit IgG at a 1:1,000 dilution in antibody dilution buffer (0.1% BSA, in PBS). Cover plate in foil to keep out of light. • Wash twice with 150 μl PBS. Add 35 μl of 1.5 μM Propidium Iodide stock to each well to determine cell number, seal the plate. • Incubate at room temperature for 30 min. Load the plate into the Acumen Explorer and scan with the appropriate instrument settings. 4. Data Analysis
[formula] Note: • Percentagecompound well represents the positive percentage of cells treated by compound. • Percentagemin well represents the positive percentage of cells treated with 3 uM GDC0994. • Percentagemax well represents the positive percentage of cells without compounds treatment. 5. IC50 Value: determine IC50 with add-in software for Microsoft Excel, XLfit™ (version 2.0) from ID Business Solutions (Guildford, UK)

The values that follow come from patent publication US12492210B2, “Tricyclic compounds and their use” (HUTCHISON MEDIPHARMA LIMITED, priority 2019, dated 2025).

T1 sequence (P28482 whole entry): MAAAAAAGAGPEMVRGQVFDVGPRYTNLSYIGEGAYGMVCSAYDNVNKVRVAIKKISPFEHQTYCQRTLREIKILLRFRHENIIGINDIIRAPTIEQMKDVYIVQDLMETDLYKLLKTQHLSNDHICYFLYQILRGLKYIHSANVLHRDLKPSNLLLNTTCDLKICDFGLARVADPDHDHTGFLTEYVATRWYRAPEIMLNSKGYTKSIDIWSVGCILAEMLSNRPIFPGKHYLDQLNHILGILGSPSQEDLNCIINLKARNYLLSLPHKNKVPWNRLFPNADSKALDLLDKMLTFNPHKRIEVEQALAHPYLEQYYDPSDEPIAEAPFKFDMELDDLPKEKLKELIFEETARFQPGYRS

Broadly, the IC50 is the concentration needed to halve the response being measured. With `CCC(F)(F)c1nnc2n1[C@@H](CF)Cn1cc(-c3cc(Nc4ccnn4C)ncc3Cl)cc1-2` [Compound 61], the values for the IC50 in experiment [1] and in experiment [2] were not above 5 nM and not above 100 nM, respectively.

In the case of `Cc1cnc(Nc2ccnn2C)cc1-c1cc2n(c1)C[C@H](CF)n1c-2nnc1C(F)(F)C(F)F` [Compound 62], the results for the IC50 in experiment [1] and in experiment [2] were not above 5 nM and not above 100 nM, respectively.

Consider `Cn1nccc1Nc1cc(-c2cc3n(c2)C[C@H](CF)n2c-3nnc2C(F)(F)C(F)F)c(F)cn1` [Compound 63], for which the IC50 in experiment [1] is not above 5 nM; in experiment [2], not above 100 nM.

For `COC1(c2nnc3n2[C@@H](CF)Cn2cc(-c4cc(Nc5ccnn5C)ncc4Cl)cc2-3)CCC1` [Compound 64], the IC50 in experiment [1] was not above 5 nM; in experiment [2], more than 100 nM.

As to `Cc1cnc(Nc2ccnn2C)cc1-c1cc2n(c1)[C@@H]1CC[C@@H](C1)n1c-2nnc1C(F)(F)C(F)F` [Compound 65], the IC50 is not above 5 nM in experiment [1] and not above 100 nM in experiment [2].

`Cc1cnc(Nc2ccnn2C)cc1-c1cc2n(c1)CC1(CC1)Cn1c-2nnc1C(F)(F)C(F)F` [Compound 66]: the values for the IC50 in experiment [1] and in experiment [2] were not above 5 nM and not above 100 nM, respectively.

Consider `Cc1cnc(Nc2ccnn2C)cc1-c1cc2n(c1)[C@H]1CC[C@H](C1)n1c-2nnc1C(F)(F)C(F)F` [Compound 67], for which the results for the IC50 in experiment [1] and in experiment [2] were not above 5 nM and not above 100 nM, respectively.

`Cc1cnc(Nc2ccnn2C)cc1-c1cc2n(c1)CCn1c-2nnc1C(F)(F)c1ccccc1F` [Compound 68]: the IC50 in experiment [1] was 5 to 10 nM; in experiment [2], more than 100 nM.

In the case of `C[C@H]1Cn2cc(-c3ccnc(Nc4ccnn4C)c3)cc2-c2nnc(C(F)(F)c3ccccc3F)n21` [Compound 69], the IC50 was not above 5 nM in experiment [1] and more than 100 nM in experiment [2].

Regarding `Cc1cnc(Nc2ccnn2C)nc1-c1cc2n(c1)CCn1c-2nnc1C(F)(F)c1ccccc1F` [Compound 70], the results for the IC50 in experiment [1] and in experiment [2] were not above 5 nM and not above 100 nM, respectively.

`C[C@H]1Cn2cc(-c3ccnc(Nc4ccnn4C)n3)cc2-c2nnc(C(F)(F)c3ccccc3F)n21` [Compound 71]: the IC50 in experiment [1] was not above 5 nM; in experiment [2], not above 100 nM.

As for `Cc1cnc(Nc2ccnn2C)cc1-c1cc2n(c1)CC(C)(F)Cn1c-2nnc1C(F)(F)C(F)F` (stereo not shown) [Compound 72], the IC50 in experiment [1] was 5 to 10 nM; in experiment [2], not above 100 nM.

With `Cn1nccc1Nc1cc(-c2cc3n(c2)CCCn2c(Cn4cc(Cl)cn4)nnc2-3)c(Cl)cn1` [Compound 73], the figures for the IC50 in experiment [1] and in experiment [2] were not above 5 nM and more than 100 nM, respectively.

As to `Cn1nccc1Nc1cc(-c2cc3n(c2)CC(F)(F)Cn2c-3nnc2C2(C#N)CCC2)c(Cl)cn1` [Compound 74], the IC50 in experiment [1] is not above 5 nM; in experiment [2] it was not above 100 nM.

Regarding `Cc1cnc(Nc2ccnn2C)cc1-c1cc2n(c1)C[C@H](F)Cn1c-2nnc1C(F)(F)C(F)(F)F` [Compound 75], the IC50 in experiment [1] is not above 5 nM; in experiment [2] it was more than 100 nM.

For the molecule `Cc1cnc(Nc2ccnn2C)cc1-c1cc2n(c1)C[C@H](CF)n1c-2nnc1C(F)(F)C(F)(F)F` [Compound 76], the values for the IC50 in experiment [1] and in experiment [2] were not above 5 nM and more than 100 nM, respectively.

With `Cc1cnc(Nc2ccnn2C)cc1-c1cc2n(c1)C(C)CCn1c-2nnc1C1(C(F)(F)F)CCC1` (stereo not shown) [Compound 77], the IC50 was not above 5 nM in experiment [1] and not above 100 nM in experiment [2].

For the molecule `Cc1cnc(Nc2ccnn2C)cc1-c1cc2n(c1)CC(F)(F)Cn1c-2nnc1C(F)(F)C(F)F` [Compound 78], the IC50 was not above 5 nM in experiment [1] and not above 100 nM in experiment [2].

As for `Cn1nccc1Nc1cc(-c2cc3n(c2)C[C@H](CF)n2c-3nnc2C(F)(F)C(F)F)c(Cl)cn1` [Compound 79], the values for the IC50 in experiment [1] and in experiment [2] were not above 5 nM and not above 100 nM, respectively.

Turning to `Cn1nccc1Nc1cc(-c2cc3n(c2)C[C@H](F)Cn2c-3nnc2C(F)(F)C(F)F)c(Cl)cn1` [Compound 80], the IC50 is not above 5 nM in experiment [1] and not above 100 nM in experiment [2].

For `Cn1nccc1Nc1cc(-c2cc3n(c2)CCCn2c-3nnc2C2(C(F)F)CCCC2)c(Cl)cn1` [Compound 81], the IC50 in experiment [1] is not above 5 nM; in experiment [2], not above 100 nM.

As to `Cc1cnc(Nc2ccnn2C)cc1-c1cc2n(c1)C[C@H](CF)n1c-2nnc1C1(C(F)(F)F)CCC1` [Compound 82], the results for the IC50 in experiment [1] and in experiment [2] were not above 5 nM and not above 100 nM, respectively.

Take `Cc1cnc(Nc2ccnn2C)cc1-c1cc2n(c1)C[C@H](C)n1c-2nnc1C(F)(F)c1ccccc1F` [Compound 83]: the figures for the IC50 in experiment [1] and in experiment [2] were more than 10 nM and not above 100 nM, respectively.

Consider `Cc1cnc(Nc2ccnn2C)cc1-c1cc2n(c1)CC1(CC1)Cn1c-2nnc1C(F)(F)C(F)(F)F` [Compound 84], for which the IC50 in experiment [1] is 5 to 10 nM; in experiment [2], more than 100 nM.

`Cn1nccc1Nc1cc(-c2cc3n(c2)C[C@H](F)Cn2c-3nnc2C2(C(F)(F)F)CCC2)c(F)cn1` [Compound 85]: the results for the IC50 in experiment [1] and in experiment [2] were not above 5 nM and not above 100 nM, respectively.

With `Cc1cnc(Nc2ccnn2C)cc1-c1cc2n(c1)C[C@H](CF)n1c-2nnc1C(F)(F)c1ccccc1` [Compound 86], the IC50 in experiment [1] was 5 to 10 nM; in experiment [2], not above 100 nM.

Take `Cc1cnc(Nc2ccnn2C)cc1-c1cc2n(c1)CC(F)(F)Cn1c-2nnc1C1(C(F)(F)F)CC1` [Compound 87]: the IC50 in experiment [1] is not above 5 nM; in experiment [2], not above 100 nM.

Regarding `Cc1cnc(Nc2ccnn2C)nc1-c1cc2n(c1)C[C@H](C)n1c-2nnc1C(F)(F)c1ccccc1F` [Compound 88], the IC50 in experiment [1] was not above 5 nM; in experiment [2], not above 100 nM.

Consider `Cc1cnc(Nc2ccnn2C)nc1-c1cc2n(c1)C[C@H](C)n1c-2nnc1C(F)(F)c1cccc(F)c1` [Compound 89], for which the IC50 in experiment [1] is not above 5 nM; in experiment [2], not above 100 nM.

For `Cc1cnc(Nc2ccnn2C)cc1-c1cc2n(c1)CCn1c-2nnc1C(F)(F)c1ccccc1Cl` [Compound 90], the IC50 is 5 to 10 nM in experiment [1] and not above 100 nM in experiment [2].

As for `C[C@H]1Cn2cc(-c3ccnc(Nc4ccnn4C)c3)cc2-c2nnc(C(F)(F)c3ccccc3Cl)n21` [Compound 91], the values for the IC50 in experiment [1] and in experiment [2] were 5 to 10 nM and not above 100 nM, respectively.

Regarding `Cn1nccc1Nc1cc(-c2cc3n(c2)C[C@H](CF)n2c(Cc4ccccc4F)nnc2-3)c(Cl)cn1` [Compound 92], the IC50 in experiment [1] was 5 to 10 nM; in experiment [2], not above 100 nM.
